Data set [1] concerns HepG2. The experiment in a line: Induction of apoptosis in human HepG2 cells assessed as early apoptotic cells at 20 uM measured after 48 hrs by Annexin V-FITC/propidium iodide staining based flow cytometry (reference value: 6.87%). Type of data set: functional. (A flow cytometer gives signals particle by particle.)
A short description of data set [2]: Cytotoxicity against human HL7702 cells measured after 72 hrs by MTT assay. The settings on record: HL7702 (L02) cells. (Tetrazolium dyes change colour on reduction, which living cells bring about.)
Data set [3] concerns HepG2. The experiment in a line: Induction of apoptosis in human HepG2 cells assessed as viable cells at 20 uM measured after 48 hrs by Annexin V-FITC/propidium iodide staining based flow cytometry (reference value: 88.58%). The format is functional. The settings on record: read-out: Activity.

A word on the IC50: it is the concentration at which inhibition is half-maximal. The low end stands for higher potency, the high end for lower potency.

Turning to `COc1cc2nc(N3CCN(CCCCCC(=O)NO)CC3)nc(NC3CCN(Cc4ccccc4)CC3)c2cc1OC`, in data set [1], the Activity is listed as 49.75%. Further, in data set [2], the IC50 at 72 h was 39.8 µM. Besides, the viability at 20 µM in data set [3] came out at 33.1%.

For the origin of these results see ChEMBL document CHEMBL5143537, “Quinazoline-based hydroxamic acid derivatives as dual histone methylation and deacetylation inhibitors for potential anticancer agents” (Bioorg Med Chem, 2022).
